Experimental data taken from US20040019092A1, “Non-peptide somatostatin receptor ligands” (priority 2001, published 2004).
Where “and” joins values, the source holds several entries; their conditions need not be identical. Equal entries are not always repeated.

What was measured:
SS1 = SS1 (Rattus norvegicus, UniProt P30680); assay: SS-1 binding (Bind SS1 D.H.)
SSTR1 = biological target: T1, SSTR1 (Homo sapiens, UniProt P30872); assay: Binding SSTR1; details: > = extrapolated value; read-out: Bind SSTR1
T1 construct: host or cells: SRIF receptor expressing cell cultures (general statement only)
T1 sequence (P30872 whole entry, species assumed): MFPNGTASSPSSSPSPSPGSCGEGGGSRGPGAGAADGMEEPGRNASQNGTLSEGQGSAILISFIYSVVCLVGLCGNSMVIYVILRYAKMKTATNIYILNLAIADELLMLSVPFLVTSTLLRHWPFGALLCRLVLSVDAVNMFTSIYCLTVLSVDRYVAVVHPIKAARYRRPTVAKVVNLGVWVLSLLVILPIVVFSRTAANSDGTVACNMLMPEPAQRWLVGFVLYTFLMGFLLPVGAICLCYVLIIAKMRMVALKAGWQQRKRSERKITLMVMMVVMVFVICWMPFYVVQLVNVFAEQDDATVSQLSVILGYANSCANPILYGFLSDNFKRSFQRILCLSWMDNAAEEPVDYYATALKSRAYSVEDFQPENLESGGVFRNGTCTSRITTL

[1] = biological target: T2, human sst2 receptor sub-type (Homo sapiens, UniProt P30874); assay: In vitro binding, human sst2 receptor sub-type (SSTR2); details: Tables 8/9: Bind SSTR2 nM
T2 construct: host or cells: SRIF receptor expressing cell cultures (general statement only)
T2 sequence (P30874 whole entry): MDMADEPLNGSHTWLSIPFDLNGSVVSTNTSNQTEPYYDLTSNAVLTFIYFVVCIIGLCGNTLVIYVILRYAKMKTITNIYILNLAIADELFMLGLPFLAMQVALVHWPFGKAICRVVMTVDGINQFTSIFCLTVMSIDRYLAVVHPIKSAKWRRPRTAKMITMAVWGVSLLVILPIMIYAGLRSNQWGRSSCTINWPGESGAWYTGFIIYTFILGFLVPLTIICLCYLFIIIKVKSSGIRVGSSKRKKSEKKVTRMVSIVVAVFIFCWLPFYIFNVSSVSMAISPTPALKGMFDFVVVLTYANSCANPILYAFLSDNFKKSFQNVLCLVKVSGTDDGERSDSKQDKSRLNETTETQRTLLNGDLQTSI
Method: The in vitro binding affinities for rat cortex SRIF receptors and the human sst2 receptor sub-type was assessed. Further the in vitro inhibition of the GHRH induced GH secretion in primary cultures of rat pituitary cells as well as the in vivo inhibition of GH secretion in the rat after systemic or enteral application was studied. […] Therefore, the in vivo activities of the compounds in rats with respect to inhibition of growth hormone release was also assessed. Most compounds selected were tested by enteral—intraduodenal (i.d.) application. For determination of the absolute activity and for the calculation of an enteral bioavailability, single subcutaneous (s.c.) application of intravenous (i.v.) infusion was used.

SSTR3 = biological target: T3, SSTR3 (Homo sapiens, UniProt P32745); assay: Binding SSTR3; details: > = extrapolated value; read-out: Bind SSTR3
T3 construct: host or cells: SRIF receptor expressing cell cultures (general statement only)
T3 sequence (P32745 whole entry, species assumed): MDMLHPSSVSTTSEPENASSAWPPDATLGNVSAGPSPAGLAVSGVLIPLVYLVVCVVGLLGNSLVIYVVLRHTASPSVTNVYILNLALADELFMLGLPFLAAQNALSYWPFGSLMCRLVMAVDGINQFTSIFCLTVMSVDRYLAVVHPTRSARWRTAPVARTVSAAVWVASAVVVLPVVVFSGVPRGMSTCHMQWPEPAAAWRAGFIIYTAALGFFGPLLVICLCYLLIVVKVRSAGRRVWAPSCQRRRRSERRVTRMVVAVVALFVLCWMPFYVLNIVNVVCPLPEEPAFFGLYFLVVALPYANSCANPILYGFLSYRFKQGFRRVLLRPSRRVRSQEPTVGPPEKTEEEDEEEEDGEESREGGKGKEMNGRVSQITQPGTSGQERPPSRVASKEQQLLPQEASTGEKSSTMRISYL

SSTR5 = biological target: T4, SSTR5 (Homo sapiens, UniProt P35346); assay: Binding SSTR5; details: read-out: Bind SSTR5
T4 construct: host or cells: SRIF receptor expressing cell cultures (general statement only)
T4 sequence (P35346 whole entry, species assumed): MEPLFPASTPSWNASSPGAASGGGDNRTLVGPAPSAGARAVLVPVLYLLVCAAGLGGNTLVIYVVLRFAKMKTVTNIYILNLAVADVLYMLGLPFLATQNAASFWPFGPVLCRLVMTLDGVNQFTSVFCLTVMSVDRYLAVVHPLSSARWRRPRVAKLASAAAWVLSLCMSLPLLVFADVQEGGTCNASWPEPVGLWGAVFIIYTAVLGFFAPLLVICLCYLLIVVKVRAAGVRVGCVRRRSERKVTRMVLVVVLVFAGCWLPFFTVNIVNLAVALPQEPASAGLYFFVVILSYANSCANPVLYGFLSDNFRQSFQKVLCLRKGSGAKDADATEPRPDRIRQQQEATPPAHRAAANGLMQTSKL

SSTR4 = biological target: T5, SSTR4 (Homo sapiens, UniProt P31391); assay: Binding SSTR4; details: > = extrapolated value; read-out: Bind SSTR4
T5 construct: host or cells: SRIF receptor expressing cell cultures (general statement only)
T5 sequence (P31391 whole entry, species assumed): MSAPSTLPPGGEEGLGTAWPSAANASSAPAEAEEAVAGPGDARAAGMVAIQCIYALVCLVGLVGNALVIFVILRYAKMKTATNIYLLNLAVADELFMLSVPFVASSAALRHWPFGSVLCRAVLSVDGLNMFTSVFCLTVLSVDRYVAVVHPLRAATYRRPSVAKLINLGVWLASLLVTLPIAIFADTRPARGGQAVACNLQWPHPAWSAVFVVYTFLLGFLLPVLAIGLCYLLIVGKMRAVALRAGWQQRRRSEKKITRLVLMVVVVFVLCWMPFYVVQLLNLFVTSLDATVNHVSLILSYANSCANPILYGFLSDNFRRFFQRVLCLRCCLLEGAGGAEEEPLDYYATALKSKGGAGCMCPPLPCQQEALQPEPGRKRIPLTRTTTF

GH secretion [2] = assay: GH secretion in vivo, rat, intraduodenal (enteral) application, 1 h (basal); details: for GH vivo i.d. 1 h ID50: basal GH secretion, 1 h after intraduodenal application, mostly approximate ID50 from single 10 mg/kg dose, Ø = no effect at this dose, > = extrapolated value; for enteral ID50 (GH secretion): enteral (intraduodenal) application
Method: (§1) Animals, anesthesia: Male rats of a Sprague Dawley strain (Ico:OFA-SD, Iffa-Credo, F-Lyon) of 200-300 g body weight were used. They were kept under standardized conditions and were anesthetized with pentobarbital-sodium (Siegfried, CH Zofingen), 60 mg/kg i.p. for subcutaneous and intraduodenal applications. Animals designed for an infusion experiment were anesthetized with urethane (Siegfried, CH Zofingen), 1.2 g/kg i.p.
(§2) Compounds: The compounds were dissolved, optionally with the aid of one or more of the following adjuncts:
(§3) Stock solutions of the compounds were prepared in water with the addition of the necessary adjunct(s). Further dilutions were prepared allowing 5 mL/kg for subcutaneous application, 2 mL for intraduodenal (i.d.) application or 4.5 mL/kg for intravenous infusion. The solutions for the intravenous application/infusion were made isotonic by addition of glucose to a final concentration of 5%.
(§4) Applications were made, or, in the case of infusion, started, approximately 10 minutes after induction of anesthesia. No further treatment followed subcutaneous or intraduodenal application. Ten, twenty-five and fifty-five minutes after start of the intravenous infusion the GH secretion was stimulated with repeated intravenous injections of the potent GHRH analog, D-Ala2 GHRH1-29NH2, 1 μg/kg.
(§5) One hour after subcutaneous or intraduodenal application of the compounds, blood was collected from the trunk after decapitation. In the case of application by infusion, 5 minutes after each application of GHRH, a blood sample of 0.8 mL was taken from a V. jugularis and mixed with EDTA (Eppendorf tubes TOM14, Milian, CH Geneva). The blood samples were kept on ice and spun in a cooled centrifuge. The serum or plasma was separated and frozen.
(§6) Statistics: In each experiment, 4-5 animals were used per dose, with 6 to 8 animals as the control group that received the vehicle. The GH serum/plasma levels were averaged, the mean of the treated groups expressed in percent of the control group and the ID50-value for the inhibition of the secretion was determined graphically (log-probit) for each experiment. In most experiments with enteral (intraduodenal) application only 1 dose, 10 mg/kg, was given. […] Only inhibitions between 20 and 80% were considered reliable.
(§7) Two to four experiments were performed. In the case of proper dose response curves, allowing the determination of an ID50 values were averaged logarithmically. In the cases of single dose-experiments, the GH value in percent of control were averaged logarithmically and the ID50 for this value was taken from the table. ID50 values determined at the different time points during the infusion were averaged and this value was included in the tables.

[3] = tested on: GHRH stimulated GH secretion; assay: GH secretion, rat in urethan anesthesia, intraduodenal + repeated GHRH stimulation; assay type: in vivo; details: urethan
Description: No further treatment followed subcutaneous or intraduodenal application. […] This value has been determined in a total of four independent experiments. […] However, in further studies compound 47 has also been tested by the enteral route of administration after repeated stimulation of the GH secretion by GHRH. […] With most of these selected compounds additional in vivo experiments in other models (intraduodenal application followed by repeated stimulation of the GH secretion by GHRH, oral application by gavage of unanesthetized, estradiol primed rats) were performed. Table 4 summarizes data obtained for the inhibition of the stimulated GH secretion after subcutaneous, intraduodenal and intravenous application and the inhibitory effects obtained for different time points during intravenous infusion of selected hydantoins. […] [table]

[4] = tested on: GHRH induced GH secretion in primary cultures of rat pituitary cells; assay: In vitro inhibition of GHRH induced GH secretion (GH vitro +GHRH); assay type: cell-based
GH secretion [5] = assay: GH secretion in vivo, rat, subcutaneous application, 1 h (basal); details: for GH vivo s.c. 1 h ID50: rat, basal GH secretion, 1 h after subcutaneous application
Method: as §1, §2, §3, §4, §5, §6, §7

[6] = tested on: GHRH stimulated GH secretion; assay: GH secretion in vivo, rat, intravenous infusion with repeated GHRH stimulation; details: for INFUS. + GHRH ID50 MEAN: Table 4, mean of infusion time points; for INFUS. + GHRH ID50 15′ / INFUS. + GHRH ID50 30′ / INFUS. + GHRH ID50 60′: Table 4, urethan; for INFUS. + GHRH ID50 15′ / GH, Ur Inf15′ +GHRH: 15′ of infusion; for INFUS. + GHRH ID50 30′ / GH, UR Inf30′ +GHRH: 30′ of infusion; for INFUS. + GHRH ID50 60′ / GH, UR Inf60′ +GHRH: 60′ of infusion; for GH, Ur Inf15′ +GHRH / GH, UR Inf30′ +GHRH / GH, UR Inf60′ +GHRH: Tables 8/9, urethane; for GH vivo Inf + GHRH ID50 (mean of time points): urethane, i.v. infusion, GHRH stimulated
Method: as §1, §3, §4, §5, §6, §7

SS1, sequence (P30680 whole entry): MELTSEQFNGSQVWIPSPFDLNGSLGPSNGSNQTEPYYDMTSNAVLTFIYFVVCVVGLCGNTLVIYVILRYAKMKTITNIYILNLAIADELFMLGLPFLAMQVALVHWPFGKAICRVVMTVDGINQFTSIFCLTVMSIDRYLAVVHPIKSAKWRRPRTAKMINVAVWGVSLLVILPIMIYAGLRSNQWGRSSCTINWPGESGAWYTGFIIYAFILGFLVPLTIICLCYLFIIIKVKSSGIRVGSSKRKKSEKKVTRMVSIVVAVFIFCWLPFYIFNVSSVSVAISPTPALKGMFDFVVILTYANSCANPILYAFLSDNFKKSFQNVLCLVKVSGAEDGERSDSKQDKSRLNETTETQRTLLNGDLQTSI

SMILES: Cc1cccc2c(CC3C(=O)N(CCCCCN)C(=O)N3S(=O)(=O)c3ccc(Oc4ccc(O)cc4)c(CN)c3)c[nH]c12 (centres unmarked) [Compound 45]
- Bind SS1 D.H. (SS1): 1.00 nM
- IC50 (SSTR1): 1400 nM
- IC50 [1]: 3 nM
- IC50 (SSTR3): 220 nM
- IC50 (SSTR5): 97 nM
- IC50 (SSTR4): > 1000 nM
- GH vivo i.d. 1 h ID50 (GH secretion [2]): 11.4 mg/kg
- enteral ID50 (GH secretion) (GH secretion [2]): 11.4 mg/kg
- enteral bioavailability (from ID50 ratio) (GH secretion [2]; intraduodenal 1 hour vs parenteral ID50): =0/42%
- INTRADUODENAL + GHRH ID50 15′ ([3]; ø = no effect at this dose): 4.663 mg/kg
- INTRADUODENAL + GHRH ID50 30′ [3]: 6.52 mg/kg
- INTRADUODENAL + GHRH ID50 60′ [3]: 14.047 mg/kg
- INTRADUODENAL + GHRH ID50 120′ ([3]; 120′, ø = no effect at this dose): ˜22000 μg/kg
- IC50 [4]: 5.1 nM
- GH vivo s.c. 1 h ID50 (GH secretion [5]): 48 µg/kg
- GH vivo s.c. 1 h ID50 (GH secretion [5]; listed as 45 ch): 48.00 µg/kg
- GH vivo s.c. 1 h ID50 (GH secretion [5]; listed as 45 dch): 48.00 µg/kg
- INFUS. + GHRH ID50 MEAN [6]: 31.05 µg/kg
- INFUS. + GHRH ID50 15′ [6]: 34.00 µg/kg
- INFUS. + GHRH ID50 30′ [6]: 30.00 µg/kg
- INFUS. + GHRH ID50 60′ [6]: 31.00 µg/kg
- GH, Ur Inf15′ +GHRH [6]: 34.000 µg/kg/h
- GH, UR Inf30′ +GHRH [6]: 30.000 µg/kg/h
- GH, UR Inf60′ +GHRH [6]: 30.000 µg/kg/h
- GH vivo Inf + GHRH ID50 (mean of time points) ([6]; listed as 45 ch): 30.000 µg/kg/h
- GH vivo Inf + GHRH ID50 (mean of time points) ([6]; listed as 45 dch): 31.05 µg/kg/h and 30.000 µg/kg/h

SMILES: Cc1cccc2c(CC3C(=O)N(CCCCCN)C(=O)N3S(=O)(=O)c3ccc(Oc4ccc(O)c(Cl)c4)c(C#N)c3)c[nH]c12 (centres unmarked) [Compound 44]
- Bind SS1 D.H. (SS1): 1.00 nM
- IC50 (SSTR1): > 1000 nM
- IC50 [1]: 2.7 nM
- IC50 (SSTR3): > 1000 nM
- IC50 (SSTR5): 170 nM
- IC50 (SSTR4): > 1000 nM
- GH vivo i.d. 1 h ID50 (GH secretion [2]): 9.721 mg/kg
- enteral ID50 (GH secretion) (GH secretion [2]): 9.7 mg/kg
- INTRADUODENAL + GHRH ID50 15′ ([3]; ø = no effect at this dose): 13 mg/kg
- INTRADUODENAL + GHRH ID50 30′ [3]: 16 mg/kg
- INTRADUODENAL + GHRH ID50 60′ [3]: 19 mg/kg
- IC50 [4]: 1.7 nM
- GH vivo s.c. 1 h ID50 (GH secretion [5]): 258 µg/kg
- GH vivo s.c. 1 h ID50 (GH secretion [5]; listed as 44 ch): 258.00 µg/kg
- INFUS. + GHRH ID50 MEAN [6]: 43.20 µg/kg
- INFUS. + GHRH ID50 15′ [6]: 72.40 µg/kg
- INFUS. + GHRH ID50 30′ [6]: 41.00 µg/kg
- INFUS. + GHRH ID50 60′ [6]: 27.10 µg/kg
- GH, Ur Inf15′ +GHRH [6]: 50 µg/kg/h
- GH, UR Inf30′ +GHRH [6]: 30 µg/kg/h
- GH, UR Inf60′ +GHRH [6]: 21 µg/kg/h
- GH vivo Inf + GHRH ID50 (mean of time points) ([6]; listed as 44 ch): 43.00 µg/kg/h and 32 µg/kg/h

SMILES: Cc1cccc2c(CC3C(=O)N(CCCCCN)C(=O)N3S(=O)(=O)c3ccc(Oc4ccc(O)cc4)c(C#N)c3)c[nH]c12 (centres unmarked) [Compound 14]
- Bind SS1 D.H. (SS1): 2.50 nM
- SS-1 binding pKd (SS1): 8.56
- IC50 (SSTR1): > 1000 nM
- IC50 [1]: 5.7 nM
- IC50 (SSTR3): 300 nM
- IC50 (SSTR5): 450 nM
- IC50 (SSTR4): > 1000 nM
- GH vivo i.d. 1 h ID50 (GH secretion [2]): >30 mg/kg
- IC50 [4]: 11 nM
- EC50 for inhibition of GH release, subcutaneous (GH secretion [5]; applied subcutaneous): ~1 mg/kg
- GH vivo s.c. 1 h ID50 (GH secretion [5]): 1160.00 µg/kg
- GH, Ur Inf15′ +GHRH [6]: ˜44 μg/kg/h
- GH, UR Inf30′ +GHRH [6]: 11.000 µg/kg/h
- GH, UR Inf60′ +GHRH [6]: 14.000 µg/kg/h
- GH vivo Inf + GHRH ID50 (mean of time points) [6]: 19.000 µg/kg/h

SMILES: N#Cc1cc(S(=O)(=O)N2C(=O)N(CCCCCN)C(=O)C2Cc2c[nH]c3ccccc23)ccc1Oc1ccc(N)cc1 (centres unmarked) [Compound 42]
- IC50 (SSTR1): 50000 nM
- IC50 [1]: 44 nM
- IC50 (SSTR3): 2800 nM
- IC50 (SSTR5): 1400 nM
- IC50 (SSTR4): 5300 nM
- GH vivo i.d. 1 h ID50 (GH secretion [2]): Ø10000 μg/kg
- IC50 [4]: 255 nM
- GH, Ur Inf15′ +GHRH [6]: 856.000 µg/kg/h
- GH, UR Inf30′ +GHRH [6]: 434.000 µg/kg/h
- GH, UR Inf60′ +GHRH [6]: 425.000 µg/kg/h
- GH vivo Inf + GHRH ID50 (mean of time points) [6]: 540.000 µg/kg/h
